Residues, ends and D or L forms follow the SMILES beside them. *: point of attachment. Cbz = O=C(OCc1ccccc1)*
Assays:
GLUL = GLUL (Homo sapiens, UniProt P15104); details: HepG2, 500 µM MSX for 8h; immunoblot
Excerpt: (§1) HeLa adenocarcinoma cells, HepG2 hepatocellular carcinoma, and Wild-type (WT) MEFs as well as Mfn1^-/^-, and Mfn2^-/- mouse embryonic fibroblasts (MEFs) were obtained from ATCC (CCL-2, HB-8065, CRL-2991, CRL-2992, and CRL-2993, respectively). eGFP-SCAP-expressing CHO Chinese hamster ovary cells were provided by Drs. J Goldstein and M Brown (U of Texas Southwestern Medical Center); WT and MFN2 KO U2OS cells were provided by Dr. Edward A Fon (McGill University, Montreal, Canada). All cell lines were cultured in complete DMEM (cDMEM: DMEM + 10% heat-inactivated FBS + 1%P/S) at 5% CO2 except for CHO cells which were cultured in DMEM/F12 media containing 5% heat-inactivated FBS. For all the experiments, cells were plated and cultivated without FBS (DMEM and 10% H20 for cell culture + 1%P/S) to promote cholesterol synthesis. Cells were tested frequently for Mycoplasma infection by PCR.
For all experiments, unless otherwise indicated, cells were plated in complete DMEM. The next day cell monolayers were rinsed 2X with 1X PBS and cultured in DMEM overnight, followed by treatments as indicated in text. […] Protein concentration was quantified using Pierce™ BCA Protein Assay Kit and after diluted with 5X SDS added to a final of 1X SDS. […]

HMGCR [1] = test: Immunoblotting for HMGCR in HepG2 cells; format: cell-based, human
Excerpt: as §1
For all experiments, unless otherwise indicated, cells were plated in complete DMEM. The next day cell monolayers were rinsed 2X with 1X PBS and cultured in DMEM overnight, followed by treatments as indicated in text. Whole cells were harvested in chilled lysis buffer (50mM Hepes-KOH pH 7.4, 40mM NaCl, 2mM EDTA, 1.5mM NaVO4, 50mM NaF, 10mM NaPyrophosphate, 10mM, NaBetaGlycerophosphate (disodium salt pentahydrate), 1% Triton X-100) containing 0.25U/uL. Lysates were subsequently shaken at 1500 rpm at 37°C for 15min, centrifuged for 5 min at 1200 rpm at 4°C, and the supernatant was transferred into a fresh tube. Protein concentration was quantified using Pierce™ BCA Protein Assay Kit and after diluted with 5X SDS added to a final of 1X SDS. 10 ug of protein was applied in an SDS-PAGE gel and transferred to PVDF membranes. Membranes were blocked with PBS-0.05% Tween 20 (PBS-T) and 5% non-fat milk for 30min. Primary antibodies were incubated in PBS-T overnight. Following incubation, blots were washed three times in PBS-T and then incubated with horseradish peroxidase (HRP)-conjugated anti-mouse IgG (CST #7076) or anti-rabbit IgG (CST #7074) at a 1:10000 dilution for 60 minutes ar RT and developed using a chemiluminescence system (Pierce™ ECL Western Blotting Substrate or Pierce SuperSignal™ West Atto Ultimate Sensitivity Substrate; ThermoFisher Scientific). […]

HepG2 cells = details: HepG2 cultured 24h w/o gln, supplemented 24h with 10 mM 15NH4Cl
Experimental: (§4) 2 × 10^5 cells were plated in complete DMEM in 6 wells plates. The following day, cells were rinsed 2X with 1X PBS and cultured in DMEM. Treatments were started the following day as indicated in the text in 6 wells plates containing. For glucose-related isotope-labeling experiments, D-Glucose-^13C6 (Sigma #389374-1G) was administed at 25mM in 1 ml of glutamine-free DMEM. […] After the indicated treatments cells were washed twice with 75mM of ammonium carbonate pH =7.4 and the plates were frozen in liquid nitrogen and stored at -80°C until metabolite extraction. For metabolite extraction, 60% MeOH containing internal standards buffer was added to each well of the frozen plate. […]
(§5) The LC-HRMS analysis of amine-containing compounds was performed using a QE-Plus high-resolution mass spectrometer coupled to a Vanquish UHPLC chromatography system (Thermo Fisher Scientific). […] The identity of each compound was validated by authentic reference compounds, which were measured at the beginning and the end of the sequence. For data analysis the area of the protonated [M + nBz + H]+ (nBz stands for the number of benzoyl moieties attached to each compound) isotopologue mass peaks of every required compound were extracted and integrated using a mass accuracy <3 ppm and a retention time (RT) tolerance of <0.05 min as compared to the independently measured reference compounds. […]

U2OS cells [2] = details: U2OS cultured 24h w/o gln, supplemented 24h with 10 mM 15NH4Cl
Experimental: as §4, §5

ATF6 = test: Immunoblotting for ATF6 cleavage in U2OS cells; format: cell-based, human; details: U2OS w/o glutamine 24h, then 8 hours ± 2 mM gln, 15 µg/ml tunicamycin
Experimental: (§2) Primary antibodies were incubated in PBS-T overnight.

ATF4 = test: Immunoblotting for ATF4 (integrated stress response) in U2OS cells; format: cell-based, human; details: U2OS ± gln, ISRIB 200nM, 8h
Experimental: as §2

HMGCR [3] = test: Immunoblotting for HMGCR in U2OS cells; format: cell-based, human; details: for loss of HMGCR during glutamine withdrawal: U2OS gln-, αKG 1 mM (24h), ISRIB 200nM (8h); for rescue of HMGCR in glutamine-starved cells: U2OS w/o glutamine 24h, then treated 24h: 1mM sodium pyruvate, DON at indicated concentrations, 2 mM D-gln
Experimental: Cells were tested frequently for Mycoplasma infection by PCR.
as §2

SREBP2 [4] = test: Immunoblotting for SREBP2 cleavage in HepG2 cells; format: cell-based, human; details: Hep G2 starved of glutamine 24h, brefeldin A 0.5 µg/ml
Experimental: as §2

eGFP-SCAP = test: Immunofluorescence assay of eGFP-SCAP localization relative to the Golgi in CHO cells; format: cell-based, Chinese hamster; details: CHO w/o gln 24h
Experimental: For immunofluorescence (IF) analysis of eGFP-SCAP-expressing CHOs, .25 × 10^4 cells were plated in a 24-well glass-bottom sensoplate, starved of glutamine for 24h, and incubated with methionine sulfoximine at 0.5 mM with either no glutamine, 2 mM glutamine, or 1mM a-ketoglutarate. […] Following 3X rinses in 1X PBS, images were taken using an Olympus IXplore SpinSR spinning disk confocal microscope.

U2OS cells [5] = test: 13C6-glucose isotope labeling and metabolomics (AEX-MS) of TCA metabolites in U2OS cells; format: cell-based, human; details: U2OS 24h, gln-, 1 mM αKG
Experimental: (§3) 2 × 10^5 cells were plated in complete DMEM in 6 wells plates. The following day, cells were rinsed 2X with 1X PBS and cultured in DMEM. Treatments were started the following day as indicated in the text in 6 wells plates containing. For glucose-related isotope-labeling experiments, D-Glucose-^13C6 (Sigma #389374-1G) was administed at 25mM in 1 ml of glutamine-free DMEM. For ammonia-related isotope-labeling experiments, ammonium label experiments Ammonium-^15N chloride (Sigma #299251-250MG) at 10mM. After the indicated treatments cells were washed twice with 75mM of ammonium carbonate pH =7.4 and the plates were frozen in liquid nitrogen and stored at -80°C until metabolite extraction. For metabolite extraction, 60% MeOH containing internal standards buffer was added to each well of the frozen plate. The cells were then scraped, transferred to a new tube containing MTBE and EquiSPLASH™ LIPIDOMIX® (Avanti 330731-1EA), and incubated for 30 min at 1500 rpm at 4°C. The samples were centrifuged for 10 min at 21.000xg at 4°C. The supernatants were then collected in a new tube with LCMS-grade H2O, incubated for 10 min at 1500 rpm at 15°C, and further centrifuged for 5 min at 16.000xg at 15°C to obtain a clear phase separation. The upper phase (apolar metabolites) and the down phase (polar metabolites) were collected in different tubes. After, the metabolite extracts were dried down in speed vac and stored at -80°C until further analysis by LC-HRS-MS as described further.

FDFT1 = test: Immunoblotting for FDFT1 in U2OS cells; format: cell-based, human; details: U2OS starved of glutamine 8 hours, αKG 1 mM
Experimental: (§6) For all experiments, unless otherwise indicated, cells were plated in complete DMEM. The next day cell monolayers were rinsed 2X with 1X PBS and cultured in DMEM overnight, followed by treatments as indicated in text. […] Lysates were subsequently shaken at 1500 rpm at 37°C for 15min, centrifuged for 5 min at 1200 rpm at 4°C, and the supernatant was transferred into a fresh tube. Protein concentration was quantified using Pierce™ BCA Protein Assay Kit and after diluted with 5X SDS added to a final of 1X SDS. 10 ug of protein was applied in an SDS-PAGE gel and transferred to PVDF membranes. Membranes were blocked with PBS-0.05% Tween 20 (PBS-T) and 5% non-fat milk for 30min. Primary antibodies were incubated in PBS-T overnight.

SREBP2 [6] = test: Immunoblotting for precursor and mature SREBP2 in U2OS cells; format: cell-based, human; details: U2OS starved of glutamine 8h ± αKG 1 mM
Experimental: as §6

U2OS cells [7] = test: UPLC-HRMS-based measurement of 13C-cholesterol in U2OS cells; format: cell-based, human; details: U2OS 24h, 25 mM 13C6-glucose, gln-, 1 mM αKG
Experimental: as §3, with “After, the metabolite extracts were dried down in speed vac and stored at -80°C until further analysis by LC-HRS-MS as described further.” left out

p70 phospho-S6K (pS6K) = test: Immunoblotting for phospho-S6K (mTORC1 activity) in U2OS cells; format: cell-based, human; details: U2OS gln-, αKG 1 mM
Experimental: as §6

Sequence of GLUL (P15104 whole entry): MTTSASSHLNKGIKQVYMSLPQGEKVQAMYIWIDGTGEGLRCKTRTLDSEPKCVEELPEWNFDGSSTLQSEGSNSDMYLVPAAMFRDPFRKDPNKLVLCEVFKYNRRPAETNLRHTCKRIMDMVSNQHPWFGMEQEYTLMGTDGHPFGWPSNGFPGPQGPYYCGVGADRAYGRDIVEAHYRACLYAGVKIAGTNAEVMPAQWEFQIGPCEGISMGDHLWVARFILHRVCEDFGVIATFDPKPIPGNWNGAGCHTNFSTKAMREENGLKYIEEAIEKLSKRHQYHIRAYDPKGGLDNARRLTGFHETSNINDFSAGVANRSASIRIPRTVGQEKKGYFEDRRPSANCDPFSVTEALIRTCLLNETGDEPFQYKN

Compound: CS(=N)(=O)CCC(N)C(=O)O (centres unmarked) [MSX, 2-amino-4-(S-methylsulfonimidosyl) butanoic acid]
- migration pattern of GLUL (GLUL): led to a shift in the migration pattern of GLUL
- HMGCR during glutamine starvation (HMGCR [1]; HepG2 starved of gln 24h, then w/out gln ± 500 µM MSX for 8h, immunoblot): further decreased HMGCR during glutamine starvation
- ammonium chloride-induced increase in HMGCR (HMGCR [1]; HepG2 starved of gln 24h, then w/out gln, 10 mM NH4Cl ± 500 µM MSX for 8h, immunoblot): prevented the ammonium chloride-induced increase in HMGCR

Compound: Cl.N [^15N-ammonia, Ammonium-^15N chloride]
- 15N-labelled glutamine of total glutamine (HepG2 cells): majority
- increase of total glutamine pool (HepG2 cells): > two-fold
- 15N-labelled glutamine of total glutamine (U2OS cells [2]): less than 2%

Compound: tunicamycin
- ATF6 cleavage (ATF6): similarly drove ATF6 cleavage in glutamine-fed or starved cells

Compound: O=C(COc1ccc(Cl)cc1)NC1CCC(NC(=O)COc2ccc(Cl)cc2)CC1 (centres unmarked) [ISRIB]
- activation of ISR effector ATF4 (ATF4): blocked the activation of the key ISR effector ATF4
- loss of HMGCR during glutamine withdrawal (HMGCR [3]): neither treatment prevented the loss of HMGCR during glutamine withdrawal

Compound: C[C@H]1CCC/C=C/[C@@H]2C[C@H](O)C[C@H]2[C@H](O)/C=C/C(=O)O1 [BFA, brefeldin A]
- SREBP2 cleavage (SREBP2 [4]): rescue SREBP2 cleavage and HMGCR in glutamine-starved cells to levels similar to those in glutamine-fed cells
- HMGCR (HMGCR [1]; Hep G2 starved of glutamine 24h, brefeldin A 0.5 µg/ml): rescue SREBP2 cleavage and HMGCR in glutamine-starved cells to levels similar to those in glutamine-fed cells

Compound: CC(=O)C(=O)[O-].[Na+] [pyruvate, sodium pyruvate]
- rescue of HMGCR in glutamine-starved cells (HMGCR [3]): do not rescue HMGCR in glutamine-starved cells

Compound: [N-]=[N+]=CC(=O)CC[C@H](N)C(=O)O [DON, 6-diazo-5-oxo-L-norleucine]
- rescue of HMGCR in glutamine-starved cells (HMGCR [3]): do not rescue HMGCR in glutamine-starved cells

Compound: O=C(Cc1ccccc1)Nc1nnc(CCSCCc2nnc(NC(=O)Cc3ccccc3)s2)s1 [BPTES, bis-2-(5-phenylacetamido-1,3,4-thiadiazol-2-yl)ethylsulfide]
- HMGCR levels in glutamine-replete conditions (HMGCR [3]; U2OS 8h, 30µM BPTES, 2 mM gln, 1 mM αKG): did not reduce HMGCR levels

Compound: CC(C)C[C@@H](C=O)NC(=O)[C@H](CC(C)C)NC(=O)[C@H](CC(C)C)NC(=O)OCc1ccccc1 [MG-132] (Cbz-Leu-Leu-Leu-aldehyde)
- depletion of HMGCR following glutamine withdrawal (HMGCR [3]; U2OS ± glutamine, MG-132 10 µM, 8h): did not prevent the depletion of HMGCR following glutamine withdrawal

Compound: O=C(O)CCC(=O)C(=O)O [αKG, alpha-ketoglutarate]
- localization of GFP-SCAP (eGFP-SCAP; then gln- ± αKG 1 mM with MSX 500 µM): retained GFP-SCAP in the ER
- m+2 and m+6 citrate pools (U2OS cells [5]; 25 mM 13C6-glucose): sufficient to restore m+2 and m+6 citrate pools to those of gln+ cells
- m+4 malate and succinate (U2OS cells [5]; 25 mM 13C6-glucose): blunted the increase in m+4 malate and succinate caused by glutamine starvation
- levels of TCA-intermediates (total pool size) (U2OS cells [5]): partly rescued levels of TCA-intermediates
- FDFT1 protein level (FDFT1): decreased in cells starved of glutamine for 8 hours, despite αKG supplementation
- processing of SREBP2 (precursor and mature forms) (SREBP2 [6]): inhibited the processing of SREBP2 with or without αKG
- 13C-incorporation into cholesterol (U2OS cells [7]): did not, however, rescue the >5-fold decrease in ^13C-incorporation into cholesterol
- mTORC1 phosphorylation of S6 kinase (S6K1) (p70 phospho-S6K (pS6K)): restored mTORC1 phosphorylation of its target ribosomal protein S6 kinase (S6K1)
- loss of HMGCR during glutamine withdrawal (HMGCR [3]): neither treatment prevented the loss of HMGCR during glutamine withdrawal
- HMGCR protein level (HMGCR [3]; U2OS starved of glutamine 8 hours, αKG 1 mM): decreased in cells starved of glutamine for 8 hours, despite αKG supplementation

Compound: Cl.N [ammonia, ammonium chloride]
- HMGCR following ammonia treatment (HMGCR [1]; HepG2 starved of glutamine 24h, then 24 h w/o gln ± 10 mM 15NH4Cl): increased following ammonia treatment
- glutamine and HMGCR following ammonia treatment (HMGCR [3]; U2OS starved of glutamine 24h, then 24 h w/o gln ± 10 mM 15NH4Cl): neither glutamine nor HMGCR increased following ammonia treatment

Compound: NC(=O)CC[C@H](N)C(=O)O [glutamine]
- Percentage of cells with Golgi-localized eGFP-SCAP (eGFP-SCAP; then gln 2 mM with MSX 500 µM): > 75%
- EC50 (HMGCR [3]; Homo sapiens, U2OS w/o gln 24h, refed gln 8h, immunoblot, read-out: half-maximal effects of glutamine on HMGCR induction): 250 to 500 µM
- glutamine concentration sufficient to induce HMGCR (HMGCR [3]; U2OS w/o gln 24h, refed gln 8h): 0.125 mM

Compound: uridine diphosphate N-acetylglucosamine [UDP-GlcNAc]
- rescue of HMGCR levels during glutamine starvation by supplements (HMGCR [3]; U2OS w/o gln 8 hours, NEAA 100 µM, nucleosides, glucosamine 1 mM, ± αKG 1mM): did not rescue HMGCR levels during glutamine starvation

Compound: NC(=O)CC[C@@H](N)C(=O)O [D-glutamine]
- rescue of HMGCR in glutamine-starved cells (HMGCR [3]): do not rescue HMGCR in glutamine-starved cells
